Data: patent US11225605B2, “Polymerizable liquid crystal compound, method for producing polymerizable liquid crystal compound, polymerizable liquid crystal composition, optically anisotropic film, optical film, polarizing plate, and image display device” (FUJIFILM Corporation, priority 2017, dated 2022)

What was measured:
[1] = Solubility in methyl ethyl ketone (MEK) and cyclopentanone (CPN); assay type: physicochemical; conditions: for Solubility Evaluation: MEK or CPN; for Solubility CPO: cyclopentanone; for Solubility CPO / Solubility MEK: shaken at 50° C., left at room temperature (23° C.) for 10 minutes; for Solubility MEK: methyl ethyl ketone
Description: Specifically, 50 mg of the compound was weighed into a 1.5-mL sample bottle, and a solvent was added thereto until the solid content became 40% by weight (75 mg).
The mixture was thoroughly shaken by the hand at 50° C. and left to stand at room temperature (23° C.) for 10 minutes. Then, this operation was stopped in a case where the mixture was clear upon visual observation, and it was determined that the solubility was 40% by weight. A solvent was added so that the solid content became 35% by weight in a case where there were undissolved residues (+18 mg). The mixture was thoroughly shaken by the hand at 50° C. and left to stand at room temperature (23° C.) for 10 minutes. […] A solvent was added so that the solid content became 30% by weight in a case where there were undissolved residues. The same operation was performed in 5%-by-weight steps and repeated up to 5% by weight. In a case where there were undissolved residues, it was determined that the solubility was less than 5% by weight (<5% by weight), and the operation was stopped. Methyl ethyl ketone (MEK) and cyclopentanone (CPN) were used as solvents for solubility measurement.

[2] = Durability of optically anisotropic film at high temperature and high humidity; assay type: physicochemical; conditions: for Durability 100° C. Relatibe 144 hours: film left 144 hours at relative humidity 95%, variation in Re (550); for Durability of optically anisotropic film: result in words
Description: With regard to a test condition for durability, a test in which the film was left to stand for 144 hours in an environment of a relative humidity of 95% at 100° C. was performed as described in Table 6 below.

C=CC(=O)OCC(C)(C)COC(=O)CCC(=O)OCCc1ccc(OC(=O)C2CCC(C(=O)Oc3ccc(OC(=O)C4CCC(C5CCC(CC)CC5)CC4)c4c3SC(=C(C#N)C#N)S4)CC2)cc1 (centres unmarked) [Compound A-1]
Solubility Evaluation [1]: C (A solubility in any one of MEK or CPN is less than 15%.)
Solubility CPO [1]: 10 % by weight
Solubility MEK [1]: 1 % by weight
Durability 100° C. Relatibe 144 hours [2]: C (A variation in Re (550) after the test with respect to the initial retardation value is 30% or more.)
Durability of optically anisotropic film [2]: deteriorated

C=CC(=O)OCC(C)(C)COC(=O)CCC(=O)OCCc1ccc(OC(=O)C2CCC(C(=O)Oc3c(C)cc(OC(=O)C4CCC(C5CCC(CC)CC5)CC4)c4c3SC(=C(C#N)C#N)S4)CC2)cc1 (centres unmarked) [Compound B-1]
Solubility Evaluation [1]: B (A solubility in any one of MEK or CPN is 15% or more and less than 30%.)
Solubility CPO [1]: 15 % by weight
Solubility MEK [1]: 5 % by weight
Durability 100° C. Relatibe 144 hours [2]: C (A variation in Re (550) after the test with respect to the initial retardation value is 30% or more.)
Durability of optically anisotropic film [2]: deteriorated

C=CC(=O)OCC(C)(C)COC(=O)CCC(=O)OCCc1ccc(OC(=O)C2CCC(C(=O)Oc3cc(C(C)(C)C)c(OC(=O)C4CCC(C(=O)Oc5ccc(CCOC(=O)CCC(=O)OCC(C)(C)COC(=O)C=C)cc5)CC4)c4c3SC(=C(C#N)C#N)S4)CC2)cc1 (centres unmarked) [Compound C-1]
Solubility Evaluation [1]: A (A solubility in any one of MEK or CPN is 30% or more.)
Solubility CPO [1]: 40 % by weight
Solubility MEK [1]: 40 % by weight

C=CC(=O)OCCOC(=O)CCC(=O)OCCc1ccc(OC(=O)C2CCC(C(=O)Oc3cc(C(C)(C)C)c(OC(=O)C4CCC(C(=O)Oc5ccc(CCOC(=O)CCC(=O)OCCOC(=O)C=C)cc5)CC4)c4c3SC(=C(C#N)C#N)S4)CC2)cc1 [Compound D-1]
Solubility Evaluation [1]: A (A solubility in any one of MEK or CPN is 30% or more.)
Solubility CPO [1]: 40 % by weight
Solubility MEK [1]: 40 % by weight
Durability 100° C. Relatibe 144 hours [2]: C (A variation in Re (550) after the test with respect to the initial retardation value is 30% or more.)
Durability of optically anisotropic film [2]: deteriorate

C=CC(=O)OCCCCCCOc1ccc(OC(=O)C2CCC(C(=O)Oc3cc(C(C)(C)C)c(OC(=O)C4CCC(C(=O)Oc5ccc(OCCCCCCOC(=O)C=C)cc5)CC4)c4c3SC(=C(C#N)C#N)S4)CC2)cc1 (centres unmarked) [Compound E-1]
Solubility Evaluation [1]: C (A solubility in any one of MEK or CPN is less than 15%.)
Solubility CPO [1]: 10 % by weight
Solubility MEK [1]: 8 % by weight
Durability 100° C. Relatibe 144 hours [2]: C (A variation in Re (550) after the test with respect to the initial retardation value is 30% or more.)
Durability of optically anisotropic film [2]: deteriorate

CCC1CCC(C2CCC(C(=O)Oc3cc(C(C)(C)C)c(OC(=O)C4CCC(C5CCC(CC)CC5)CC4)c4c3SC(=C(C#N)C#N)S4)CC2)CC1 (centres unmarked) [Compound I-1f]
Solubility Evaluation [1]: C (A solubility in any one of MEK or CPN is less than 15%.)
Solubility CPO [1]: 1 % by weight
Solubility MEK [1]: <1 % by weight

C=CC(=O)OCCOC(=O)CCC(=O)OCCc1ccc(OC(=O)C2CCC(C(=O)Oc3c(C(C)(C)C)cc(OC(=O)C4CCC(C5CCC(CC)CC5)CC4)c4c3SC(=C(C#N)C#N)S4)CC2)cc1 (centres unmarked) [Compound I-2]
Solubility Evaluation [1]: A (A solubility in any one of MEK or CPN is 30% or more.)
Solubility CPO [1]: 30 % by weight
Solubility MEK [1]: 35 % by weight
Durability 100° C. Relatibe 144 hours [2]: A (A variation in Re (550) after the test with respect to the initial retardation value is less than 15% of the initial value.)

C=CC(=O)OCCCCCCOc1ccc(OC(=O)C2CCC(C(=O)Oc3c(C(C)(C)C)cc(OC(=O)C4CCC(C5CCC(CC)CC5)CC4)c4c3SC(=C(C#N)C#N)S4)CC2)cc1 (centres unmarked) [Compound I-3]
Solubility Evaluation [1]: B (A solubility in any one of MEK or CPN is 15% or more and less than 30%.)
Solubility CPO [1]: 20 % by weight
Solubility MEK [1]: 10 % by weight
Durability 100° C. Relatibe 144 hours [2]: A (A variation in Re (550) after the test with respect to the initial retardation value is less than 15% of the initial value.)

C=CC(=O)OCC(C)(C)COC(=O)CCC(=O)OCCc1ccc(OC(=O)C2CCC(C(=O)Oc3cc(C(C)(C)C)c(OC(=O)C4CCC(C5CCC(CC)CC5)CC4)c4c3SC(=C(C#N)C#N)S4)CC2)cc1 (centres unmarked) [Compound I-13]
Solubility Evaluation [1]: B (A solubility in any one of MEK or CPN is 15% or more and less than 30%.)
Solubility CPO [1]: 15 % by weight
Solubility MEK [1]: 5 % by weight
Durability 100° C. Relatibe 144 hours [2]: B (A variation in Re (550) after the test with respect to the initial retardation value is 15% or more and less than 30% of the initial value.)
